Test results published in patent US8119643B2, “Benzoimidazolyl-pyrazine compounds for inflammation and immune-related uses” (Synta Pharmaceuticals Corp., priority 2006, dated 2012).

What follows are molecules tested on IL-2 production (assay: Inhibition of IL-2 production in PHA-activated Jurkat cells (ELISA)). Conditions: Homo sapiens, PHA 2.5 μg/mL, 20 hours, IL-2 ELISA.
Assay type: cell-based
Protocol: Jurkat cells were placed in a 96 well plate (0.5 million cells per well in 1% FBS medium) then a test compound of this invention was added at different concentrations. After 10 minutes, the cells were activated with PHA (final concentration 2.5 μg/mL) and incubated for 20 hours at 37° C. under CO2. The final volume was 200 μL. Following incubation, the cells were centrifuged and the supernatants were collected and stored at −70° C. prior to assaying for IL-2 production. A commercial ELISA kit (IL-2 Eli-pair, Diaclone Research, Besancon, France) was used to detect production of IL-2, from which dose response curves were obtained. The IC50 value was calculated as the concentration at which 50% of maximum IL-2 production after stimulation was inhibited versus a non-stimulation control.
An IC50 of 79 nM was found for COc1ccc2c(c1)nc(C(F)(F)F)n2-c1cnc(NC(=O)c2ccncc2F)cn1 [Compound 3, 3-Fluoro-N-[5-(5-methoxy-2-trifluoromethyl-benzoimidazol-1-yl)-pyrazin-2-yl]-isonicotinamide] in this work. An IC50 of 20 nM was found for COc1ccc2c(c1)nc(C(F)(F)F)n2-c1cnc(NC(=O)c2ccccc2F)cn1 [Compound 5, 2-Fluoro-N-[5-(5-methoxy-2-trifluoromethyl-benzoimidazol-1-yl)-pyrazin-2-yl]-benzamide] in this work. An IC50 of 33 nM was found for COc1ccc2c(c1)nc(C(F)(F)F)n2-c1cnc(NC(=O)c2ccc(F)cc2F)cn1 [Compound 7, 2,4-Difluoro-N-[5-(5-methoxy-2-trifluoromethyl-benzoimidazol-1-yl)-pyrazin-2-yl]-benzamide] in this work. An IC50 of 55 nM was found for COc1ccc2c(c1)nc(C(F)(F)F)n2-c1cnc(NC(=O)c2ccc(Cl)cc2F)cn1 [Compound 9, 4-Chloro-2-fluoro-N-[5-(5-methoxy-2-trifluoromethyl-benzoimidazol-1-yl)-pyrazin-2-yl]-benzamide] in this work. An IC50 of 29 nM was found for COC(=O)c1ccc2c(c1)nc(C(F)(F)F)n2-c1cnc(NC(=O)c2c(F)cccc2F)cn1 [Compound 25, 1-[5-(2,6-Difluoro-benzoylamino)-pyrazin-2-yl]-2-trifluoromethyl-1H-benzoimidazole-5-carboxylic acid methyl ester] in this work. An IC50 of 112 nM was found for COC(=O)c1ccc2c(c1)nc(C(F)(F)F)n2-c1cnc(NC(=O)c2ccncc2C)cn1 [Compound 28, 1-{5-[(3-Methyl-pyridine-4-carbonyl)-amino]-pyrazin-2-yl}-2-trifluoromethyl-1H-benzoimidazole-5-carboxylic acid methyl ester] in this work. An IC50 of 103 nM was found for COc1ccc2c(c1)nc(C(F)(F)F)n2-c1cnc(NCc2c(F)cccc2F)cn1 [Compound 37, (2,6-Difluoro-benzyl)-[5-(5-methoxy-2-trifluoromethyl-benzoimidazol-1-yl)-pyrazin-2-yl]-amine] in this work. An IC50 of 396 nM was found for COc1ccc2c(c1)nc(C(F)(F)F)n2-c1cnc(NCc2ccccc2F)cn1 [Compound 41, (2-Fluoro-benzyl)-[5-(5-methoxy-2-trifluoromethyl-benzoimidazol-1-yl)-pyrazin-2-yl]-amine] in this work. An IC50 greater than 1000 nM was found for COc1ccc2c(c1)nc(C(F)(F)F)n2-c1cnc(NCc2ccccc2C)cn1 [Compound 46, [5-(5-Methoxy-2-trifluoromethyl-benzoimidazol-1-yl)-pyrazin-2-yl]-(2-methyl-benzyl)-amine] in this work. An IC50 greater than 1000 nM was found for COc1ccc2c(c1)nc(C(F)(F)F)n2-c1cnc(NCC2CCCCC2)cn1 [Compound 73, Cyclohexylmethyl-[5-(5-methoxy-2-trifluoromethyl-benzoimidazol-1-yl)-pyrazin-2-yl]-amine] in this work. An IC50 of 37 nM was found for COc1ccc2c(c1)nc(C(F)(F)F)n2-c1cnc(NC(=O)c2ccccc2Br)cn1 [Compound 85, 2-Bromo-N-[5-(5-methoxy-2-trifluoromethyl-benzoimidazol-1-yl)-pyrazin-2-yl]-benzamide] in this work. An IC50 of 150 nM was found for COc1ccc2c(c1)nc(C(F)(F)F)n2-c1cnc(NC(=O)c2ccc(F)cc2)cn1 [Compound 86, 4-Fluoro-N-[5-(5-methoxy-2-trifluoromethyl-benzoimidazol-1-yl)-pyrazin-2-yl]-benzamide] in this work. An IC50 greater than 1000 nM was found for COc1ccc2c(c1)nc(C(F)(F)F)n2-c1cnc(NCc2ccccc2Cl)cn1 [Compound 87, (2-Chloro-benzyl)-[5-(5-methoxy-2-trifluoromethyl-benzoimidazol-1-yl)-pyrazin-2-yl]-amine] in this work. An IC50 of 101 nM was found for COc1ccc2c(c1)nc(C(F)(F)F)n2-c1cnc(NC(=O)c2cccc(F)c2)cn1 [Compound 88, 3-Fluoro-N-[5-(5-methoxy-2-trifluoromethyl-benzoimidazol-1-yl)-pyrazin-2-yl]-benzamide] in this work. An IC50 greater than 1000 nM was found for COc1ccc2c(c1)nc(C(F)(F)F)n2-c1cnc(NCc2ccc(F)cc2)cn1 [Compound 89, (4-Fluoro-benzyl)-[5-(5-methoxy-2-trifluoromethyl-benzoimidazol-1-yl)-pyrazin-2-yl]-amine] in this work. An IC50 greater than 1000 nM was found for COc1ccc(CNc2cnc(-n3c(C(F)(F)F)nc4cc(OC)ccc43)cn2)cc1 [Compound 90, (4-Methoxy-benzyl)-[5-(5-methoxy-2-trifluoromethyl-benzoimidazol-1-yl)-pyrazin-2-yl]-amine] in this work. An IC50 of 384 nM was found for COc1ccc2c(c1)nc(C(F)(F)F)n2-c1cnc(NC(=O)c2ccc(Cl)cc2)cn1 [Compound 91, 4-Chloro-N-[5-(5-methoxy-2-trifluoromethyl-benzoimidazol-1-yl)-pyrazin-2-yl]-benzamide] in this work. An IC50 of 17 nM was found for COc1ccc2c(c1)nc(C(F)(F)F)n2-c1cnc(NC(=O)c2cccc(C)c2C)cn1 [Compound 92, N-[5-(5-Methoxy-2-trifluoromethyl-benzoimidazol-1-yl)-pyrazin-2-yl]-2,3-dimethyl-benzamide] in this work. An IC50 of 181 nM was found for COc1ccc2c(c1)nc(C(F)(F)F)n2-c1cnc(NC(=O)c2ccc(C#N)cc2)cn1 [Compound 93, 4-Cyano-N-[5-(5-methoxy-2-trifluoromethyl-benzoimidazol-1-yl)-pyrazin-2-yl]-benzamide] in this work. An IC50 of 78 nM was found for COc1ccc2c(c1)nc(C(F)(F)F)n2-c1cnc(NC(=O)c2ccc(C)cc2C)cn1 [Compound 94, N-[5-(5-Methoxy-2-trifluoromethyl-benzoimidazol-1-yl)-pyrazin-2-yl]-2,4-dimethyl-benzamide] in this work. An IC50 of 489 nM was found for COc1ccc2c(c1)nc(C(F)(F)F)n2-c1cnc(NC(=O)c2cccc(SC)c2)cn1 [Compound 95, N-[5-(5-Methoxy-2-trifluoromethyl-benzoimidazol-1-yl)-pyrazin-2-yl]-3-methylsulfanyl-benzamide] in this work. An IC50 of 91 nM was found for COc1ccc2c(c1)nc(C(F)(F)F)n2-c1cnc(NC(=O)c2cccc(Cl)c2)cn1 [Compound 96, 3-Chloro-N-[5-(5-methoxy-2-trifluoromethyl-benzoimidazol-1-yl)-pyrazin-2-yl]-benzamide] in this work. An IC50 of 307 nM was found for COc1ccc2c(c1)nc(C(F)(F)F)n2-c1cnc(NC(=O)c2ccc([N+](=O)[O-])cc2)cn1 [Compound 97, N-[5-(5-Methoxy-2-trifluoromethyl-benzoimidazol-1-yl)-pyrazin-2-yl]-4-nitro-benzamide] in this work. An IC50 of 104 nM was found for COc1ccc2c(c1)nc(C(F)(F)F)n2-c1cnc(NC(=O)c2cccc([N+](=O)[O-])c2)cn1 [Compound 98, N-[5-(5-Methoxy-2-trifluoromethyl-benzoimidazol-1-yl)-pyrazin-2-yl]-3-nitro-benzamide] in this work. An IC50 of 52 nM was found for COc1ccc2c(c1)nc(C(F)(F)F)n2-c1cnc(NC(=O)c2ccccc2Cl)cn1 [Compound 99, 2-Chloro-N-[5-(5-methoxy-2-trifluoromethyl-benzoimidazol-1-yl)-pyrazin-2-yl]-benzamide] in this work. An IC50 of 132 nM was found for COc1ccc2c(c1)nc(C(F)(F)F)n2-c1cnc(NCc2c(F)cccc2Cl)cn1 [Compound 100, (2-Chloro-6-fluoro-benzyl)-[5-(5-methoxy-2-trifluoromethyl-benzoimidazol-1-yl)-pyrazin-2-yl]-amine] in this work. An IC50 of 96 nM was found for COc1ccc2c(c1)nc(C(F)(F)F)n2-c1cnc(NC(=O)c2cccc(C#N)c2)cn1 [Compound 101, 3-Cyano-N-[5-(5-methoxy-2-trifluoromethyl-benzoimidazol-1-yl)-pyrazin-2-yl]-benzamide] in this work. An IC50 greater than 1000 nM was found for COc1ccc2c(c1)nc(C(F)(F)F)n2-c1cnc(NCc2ccccc2OC)cn1 [Compound 102, (2-Methoxy-benzyl)-[5-(5-methoxy-2-trifluoromethyl-benzoimidazol-1-yl)-pyrazin-2-yl]-amine] in this work. An IC50 greater than 1000 nM was found for COc1cccc(CNc2cnc(-n3c(C(F)(F)F)nc4cc(OC)ccc43)cn2)c1 [Compound 103, (3-Methoxy-benzyl)-[5-(5-methoxy-2-trifluoromethyl-benzoimidazol-1-yl)-pyrazin-2-yl]-amine] in this work. An IC50 of 929 nM was found for COc1cccc(C(=O)Nc2cnc(-n3c(C(F)(F)F)nc4cc(OC)ccc43)cn2)c1 [Compound 104, 3-Methoxy-N-[5-(5-methoxy-2-trifluoromethyl-benzoimidazol-1-yl)-pyrazin-2-yl]-benzamide] in this work. An IC50 greater than 1000 nM was found for COc1ccc2c(c1)nc(C(F)(F)F)n2-c1cnc(NCc2ccncc2)cn1 [Compound 105, [5-(5-Methoxy-2-trifluoromethyl-benzoimidazol-1-yl)-pyrazin-2-yl]-pyridin-4-ylmethyl-amine] in this work. An IC50 of 2 nM was found for CCc1ccc(C(=O)Nc2cnc(-n3c(C(F)(F)F)nc4cc(OC)ccc43)cn2)cc1 [Compound 106, 4-Ethyl-N-[5-(5-methoxy-2-trifluoromethyl-benzoimidazol-1-yl)-pyrazin-2-yl]-benzamide] in this work. An IC50 of 18 nM was found for COc1ccc2c(c1)nc(C(F)(F)F)n2-c1cnc(NC(=O)c2ccc(Br)cc2)cn1 [Compound 107, 4-Bromo-N-[5-(5-methoxy-2-trifluoromethyl-benzoimidazol-1-yl)-pyrazin-2-yl]-benzamide] in this work. An IC50 of 57 nM was found for COc1ccc2c(c1)nc(C(F)(F)F)n2-c1cnc(NC(=O)c2cccc(Br)c2)cn1 [Compound 108, 3-Bromo-N-[5-(5-methoxy-2-trifluoromethyl-benzoimidazol-1-yl)-pyrazin-2-yl]-benzamide] in this work. An IC50 of 279 nM was found for CCCc1ccc(C(=O)Nc2cnc(-n3c(C(F)(F)F)nc4cc(OC)ccc43)cn2)cc1 [Compound 109, N-[5-(5-Methoxy-2-trifluoromethyl-benzoimidazol-1-yl)-pyrazin-2-yl]-4-propyl-benzamide] in this work. An IC50 of 19 nM was found for COc1ccc2c(c1)nc(C(F)(F)F)n2-c1cnc(NC(=O)c2ccc(Cl)cc2Cl)cn1 [Compound 110, 2,4-Dichloro-N-[5-(5-methoxy-2-trifluoromethyl-benzoimidazol-1-yl)-pyrazin-2-yl]-benzamide] in this work.
